Here are results for 1 substance from patent publication US12071624B2, “Antisense oligonucleotide targeting ARL4C molecule, and nucleic acid drug using antisense oligonucleotide” (OSAKA UNIVERSITY, priority 2018, dated 2024).

The test system of data set [1] is HLE cells. Briefly: Cell proliferation assay (CyQUANT NF) in HLE cells. The following applies: HLE cells transfected with siRNA at 20 nM. It is filed as cell-based. The procedure:
HLE cells, HCT116 cells, and A549 cells were transfected with 25 to 50 nM ASO and 10 to 20 nM siRNA using Lipofectamine 3000 (Invitrogen, Carlsbad, CA, USA) or RNAiMAX (Invitrogen). Transfected cells were used in the experiments 36 to 48 hours after the end of the transfection.
The cell proliferation assays were performed using the CyQUANT NF Cell Proliferation Assay Kits (Thermo Fisher Scientific), in the way recommended by the manufacturer.
HLE cells were transfected with control ASO, ASO-1316 and ASO-3223 at 25 nM and a proliferation assay was performed; the results of the assay are shown in (e) of FIG. 4.
(§1) HLE cells were transfected with control siRNA and PIK3CD siRNA (siRNA against PIK3CD) at 20 nM, and a proliferation assay was performed; the results are shown in (e) of FIG. 5. In addition, an anti-phosphorylated AKT antibody and an anti-AKT antibody as probes were caused to act on cell lysates of HLE cells transfected with control siRNA and PIK3CD siRNA; the results are shown in FIG. 5 (f). HLE cells were transfected with control siRNA and PIK3CD siRNA (siRNA against PIK3CD) at 20 nM and the PIK3CD mRNA amount was measured by real-time PCR; the results are shown in (c) of FIG. 7.

Data set [2] has as its system AKT. The experiment in a line: Anti-phosphorylated AKT / anti-AKT probing of HLE cell lysates. Particulars: HLE cells transfected with PIK3CD siRNA. Format: cell-based.
Description: Anti-ARL4C and anti-PIK3CD antibodies were purchased from Abcam (Cambridge, UK) and Santa Cruz Biotechnology (Santa Cruz, CA, USA), respectively. Anti-phosphorylated AKT (S473) antibody, anti-AKT antibody, anti-Ki-67 antibody, and anti-YAP/TAZ were purchased from Cell Signaling Technology (Beverly, MA, USA). PD184161 (MEK1/2 inhibitor) and VivoGlo luciferin were purchased from Sigma-Aldrich (Steinheim, Germany) and Promega (Madison, WI, USA), respectively.
as §1

As for “PIK3CD siRNA: siRNA against PIK3CD, Table 3, SEQ ID NO: 102 and 103 (chain 1 GCGAATACTCTGCCATTAT; chain 2 GCCAACTAACTCTGCAGAT; two separate siRNAs, only sense strands listed, further chemistry not given here) [reference compound]”, in data set [1], the cell proliferation result is “suppressed cell proliferation”. Further, in data set [2], the “AKT activity (pAKT S473)” value is recorded as “reduced AKT activity”.
